Measured values reported in US12702715B2, “Targeted RNA degradation allows precision repurposing of protein-targeted small molecule medicines to RNA” (University of Florida Research Foundation, Incorporated, priority 2020, dated 2026).

Experiments:
pre-miR-21 mutant = assay: In vitro Chem-CLIP, pre-miR-21 mutant; assay type: binding; conditions: 1, 5, 20 or 100 μM
Protocol: In Vitro Chemical Cross-linking and Isolation by Pull Down (Chem-CLIP) and Competitive Chem-CLIP (C-Chem-CLIP). Growth medium [RMPI 1640 medium with L-glutamine & 25 mM HEPES (Corning)] was inactivated by heating at 95° C. to for 15 min and slowly cooling to room temperature at benchtop. Pre-miR-21 labeled with ^32P at the 5′-end (~10,000 counts) was folded in growth medium by heating at 95° C. for 1 min and slowly cooling to room temperature. To the samples was added Chem-CLIP probe 4 (1, 5, 20 or 100 μM) or negative control probe 5 (1, 5, 20 or 100 μM), and the mixtures were incubated at 37° C. for 1 h. The samples were then cross-linked by irradiation with 365 nm light for 10 min. The Chem-CLIP probe 4 or control probe 5, whether or not cross-linked to the RNA, was then clicked to disulfide biotin azide (10 mM in DMSO; 10 μL per sample; 1168-10, Click Chemistry Tools) by incubating in a solution containing 1×HEPES buffer (25 mM, pH 7), sodium ascorbate (10 μL/sample, 250 mM in H2O), CuSO4 (10 μL/sample, 50 mM in H2O), THPTA (10 μL/sample, 50 mM in H2O) for 2 h at 37° C. […] The radioactive signal from bound RNAs (on the beads) and unbound RNAs (from the wash steps) were measured by using a Beckman Coulter LS6500 Liquid Scintillation Counter. Enrichment of pre-miR-21 was calculated as previously described^6. […]

pre-miR-21 = assay: In vitro Dicer processing of pre-miR-21; assay type: biochemical, human
Protocol: In vitro Dicer Processing. The pre-miR-21 WT RNA or pre-miR-21 base pair mutant were 5′-end labeled with T4 polynucleotide kinase and [γ-^32P] ATP as described previously^7. The RNA was folded in 1× Reaction Buffer (Genlantis) by heating at 55° C. for 5 min and cooling slowly to room temperature on the benchtop. The mixture was then supplemented with 2.5 mM MgCl2 and 1 mM ATP. The Dicer processing reaction was performed as described previously^6. The cleavage products were resolved on a 15% polyacrylamide denaturing gel and imaged using a Molecular Dynamics Typhoon phosphorimager and quantified with QuantityOne software from Bio-Rad.

[1] = target: pre-miR-21's A-bulge (Dicer processing site in pre-miR-21); assay: Fluorescent binding affinity measurement, A-bulge RNA; set-up: species or system human
Protocol: (§1) Fluorescent Binding Affinity Measurements. Binding assays were completed as previously described^5. Briefly, the RNA of interest was folded as described in the “Solution-based Dye Displacement Assay” section, including the addition of BSA. Then, 1 was added to the RNA solution to a final concentration of 0.5 μM. The solution was serial diluted with 1× AB2 containing 0.5 μM of 1. The solutions were incubated at room temperature in the dark for 30 min. The solutions were then transferred to a black 384-well plate. Fluorescence intensity was measured using a Tecan plate reader (Gain: 100, Integration time: 40 μs) with excitation wavelength of and emission wavelength of 355 nm and 535 nm, respectively. The change in fluorescence was normalized to samples lacking RNA. Binding affinity was calculated by using Equation 2, as previously described^5. I=I0+0.5Δε{([FL]0+[RNA]0+Kd)−(([FL]0+[RNA]0+Kd)^2−4[FL]0[RNA]0)^0.5} (2) where I and I0 are the measured fluorescence intensity of compound with or without RNA, respectively, Δε is the difference between the fluorescence intensity with infinite concentration of RNA or without RNA, [FL]0 and [RNA]0 are the concentrations of small molecule and RNA, respectively, and Kd is the dissociation constant.

[2] = tested on: base pair mutant RNA (control RNA); assay: Fluorescent binding affinity measurement, base pair mutant (control RNA); conditions: up to 40 μM of the mutant RNA
Protocol: as §1

Row | SMILES | enrichment of 32P-labeled pre-miR-21 mutant (pre-miR-21 mutant) | in vitro processing of pre-miR-21 (pre-miR-21) | Kd [1] | binding to control RNA / base pair mutant [2]
1 | C#CCCC1(CCC(=O)NCCN2CCN(c3ccc4[nH]c(-c5c(N)c6c(F)cccc6[nH]c5=O)nc4c3)CC2)N=N1 [Compound 4] | not mutant |  |  | 
2 | CN1CCN(c2ccc3nc(-c4c(N)c5c(F)cccc5[nH]c4=O)[nH]c3c2)CC1 [Compound 1, Dovitinib, reference compound] |  | inhibited | 3000 nM | No saturable binding
